Measured values published in US20240382473A1, “Combination Therapies for Treatment of Myelodysplastic Syndrome” (priority 2019, published 2024).

Tests used:
THP-1 AML model = experiment: THP-1 AML xenograft model; format: in vivo; conditions: alvocidib alone
[1] = tested on: RNA pol II phosphorylation and MCL-1 expression in MV-4-11 AML cells; experiment: Flow cytometry of RNA pol II phosphorylation and MCL-1 expression in MV-4-11 AML cells; format: cell-based; conditions: 24-hour treatment
CD34+ MDS BMMNC [2] = experiment: Caspase-Glo 3/7 apoptotic activity in CD34+ MDS BMMNC (Example 17 efficacy study); format: cell-based, human; conditions: azacitidine 100 nM 24 hours, alvocidib 100 nM 24 hours
Procedure: CD34^+ cells were isolated by CD34 MicroBead Kit (Miltenyi Biotec) and cultured in StemSpan™ SFEM II with StemSpan™ CD34^+ Expansion Supplement (STEMCELL Technologies). […] Apoptotic activity was assessed by Caspase-Glo® 3/7 assay (Promega).

[3] = tested on: pRpb1 and MCL1 in primary MDS BMMCs; experiment: pRpb1 and MCL1 levels in MDS patient cells after alvocidib; format: cell-based, human; conditions: relative to DMSO
Source text: It has been shown that alvocidib reduces RNA pol II phosphorylation and MCL-1 expression in vitro. […] Phospho-RNA polymerase (pRpb1) and MCL-1 (MCL1) levels are decreased after alvocidib treatment in MDS patient cells (FIG. 23). Levels are indicated as a percent relative to levels measured for a DMSO treated sample. Numbers in parenthesis represent concentrations in nM for each alvocidib (Alvo) treatment.
(§1) Additionally, an assay has been tested in bone marrow mononuclear cells (BMMCs) from AML and MDS patients to examine MCL-1 dependency prior to therapy with alvocidib. Approximately 25% of AML patient BMMCs and 60% of MDS patient BMMCs are MCL-1 dependent. Azacitidine and decitabine increased NOXA expression in AML cell line models. […] Combination studies are currently under investigation to determine whether enhanced anti-cancer activity is observed through pharmacologic downregulation of MCL-1 via CDK9 inhibition by alvocidib and upregulation of the MCL-1 antagonist NOXA after HMA exposure.

AML patients = experiment: NOXA priming of pre-treatment bone marrow versus response to alvocidib in AML patients; format: in vivo, human; conditions: patients with pre-treatment bone marrow NOXA priming greater than or equal to 40%
Source text: Furthermore, high NOXA Priming (MCL-1 dependence) is predictive of alvocidib sensitivity in AML patients. […] FIG. 16A is a box-plot showing that high NOXA priming (MCL-1 dependence) is predictive of alvocidib sensitivity in acute myeloid leukemia (AML) patients. The box-plot plots NOXA priming in complete remission and no response patient bone marrow samples taken from patients prior to being treated with alvocidib. […] NR=no response). The box-plot plots NOXA priming in complete remission and no response patient bone marrow samples taken from patients prior to being treated with 7+3 chemotherapy.

[4] = tested on: NOXA and MCL-1 expression in CD34+ MDS BMMNC; experiment: Pharmacodynamic marker study, Western blot NOXA/MCL-1 in CD34+ MDS BMMNC; format: cell-based, human; conditions: Patient 0219; azacitidine 0.3 or 0.6 μM 24 hours, then alvocidib 0.1 μM 6 hours
Procedure: A pharmacodynamic maker study was performed for azaditidine and alvocidib using MDS patient-derived BMMNC from Cureline. CD34^+ cells were isolated by CD34 MicroBead Kit (Miltenyi Biotec) and cultured in StemSpan™ SFEM II with StemSpan™ CD34^+ Expansion Supplement (STEMCELL Technologies). […] Protein was extracted using RIPA buffer with protease and phosphatase inhibitor cocktail. Protein expression was assessed by Western blot using NOXA (CST, Cat #14766S), MCL-1(CST, Cat #392245) and β-actin (CST, Cat #4967L) antibodies. Apoptotic activity was assessed by Caspase-Glo® 3/7 assay (Promega).

OCI AML3 xenograft model = experiment: OCI AML3 xenograft model; format: in vivo
circulating blasts = conditions: three-day dosing, in the clinic; cited from earlier work
clinical = conditions: human, in vivo; for AUC(0-t): 75 mg/m2, AUC(0-27); for Cmax: 75 mg/m2, Cmax; for Tmax: 75 mg/m2, Tmax
Source text: Plasma PK analyses for alvocidib and known metabolites, if any, and dose proportionality will be determined on Days 8 and 9 (for patients receiving alvocidib following DEC) or Days 10 and 11 (for patients receiving alvocidib following AZA) of Cycle 1 in all patients enrolled in the study, according to Table 5 or Table 6: […]

MDS BMMC's = experiment: Cell viability following 48 hours treatment (FIGS. 26A/26B; IC50 in MDS BMMC's); format: cell-based
Source text: as §1, with “alvocidib.” for “alvocidib. Approximately 25% of AML patient BMMCs and 60% of MDS patient BMMCs are MCL-1 dependent. Azacitidine and decitabine increased NOXA expression in AML cell line models.”
FIGS. 26A and 26B are scatter plots showing cell viability following 48 hours treatment at indicated concentrations of azacytidine (alone) or alvocidib (alone). FIG. 26A is a plot of cell viability following 48-hour treatment against indicated concentrations of azacitidine. […] FIG. 26B is a plot of cell viability following 48-hour treatment against indicated concentrations of alvocidib.

MOLM13 xenograft model = experiment: MOLM13 xenograft model, tumor volume and survival; format: in vivo; conditions: aggressive daily dosing, tumor bearing mice
Procedure: FIGS. 31A and 31B show results from sequential dosing of alvocidib and HMAs in a MOLM13 model for MDS/sAML. HMA dosing sensitized AML cells to sequential dosing and improved survival in vivo. Alvocidib, azacytidine, and decitabine activity were assessed in the MOLM13 xenograft model. FIG. 31A is a plot of tumor volume over time and FIG. 31B is a plot of percent survival over time. Mice were dosed with alvocidib, qdx2, and/or an HMA, qdx3 on a weekly basis. Doses are indicated in mg/kg (mpk).
[…] show results from aggressive daily dosing of alvocidib and decitabine in the MOLM13 model. Tumor bearing mice were treated. Doses and schedule are indicated. FIG. 32A plots tumor volume following treatment and FIG. 32B plots body weight following treatment.

[5] = tested on: luciferase expressing MV4-11 model; experiment: Luciferase expressing MV4-11 AML xenograft model; format: in vivo; conditions: alvocidib alone
[6] = tested on: MCL-1 and NOXA expression in MV-4-11 cells; experiment: Western blot of NOXA and MCL-1 in MV-4-11 cells, alvocidib and azacytidine; format: cell-based; conditions: with azacytidine
Source text: FIG. 28A is an overview of an experimental used to evaluate an interaction between alvocidib and azacytidine with regard to MCL-1 and NOXA expression. FIG. 28B is a Western blot showing NOXA and MCL-1 levels in cells treated according to the experiment summarized in FIG. 28A at indicated drug concentrations.

[7] = tested on: MCL-1 expression in MV4-11 cells; experiment: Western blot of MCL-1 protein in MV4-11 cells treated with alvocidib; format: cell-based
Source text: FIG. 9 is an illustration of a proposed mechanism by which alvocidib inhibits expression of MCL-1 by inhibiting CDK9.

[8] = tested on: NOXA expression in MV-4-11 AML cells / MOLM13 cells; experiment: Western blot for NOXA expression in AML cell lines treated with HMAs; format: cell-based
Procedure: (§2) In the decitabine experiments (FIGS. 24 and 36), the MV-4-11 AML cell line and MOLM13 cell line model for secondary AML (prior MDS) were used. MV-4-11 AML cells (or MOLM13 cells as indicated) were treated with indicated concentrations of decitabine for indicated times, and protein was assessed by Western blot for NOXA expression. […] FIGS. 24A and 24C are Western blots and FIG. 24B is a bar graph of mRNA concentrations. […] The Western blot was prepared from a MOLM13 xenograft treated with decitabine at 1 mg/kg IP for 24 hours.
In the azacitidine experiments (FIG. 25), MV-4-11 AML cells were treated with indicated concentrations of azacitidine for 24 hours and protein assessed by Western blot for NOXA expression.

[9] = tested on: MDS patient-derived BMMCs (blasts); experiment: T-MS1 based MCL-1 dependency assay on MDS patient blasts; format: cell-based, human
Procedure: To determine the patients' cells' dependency on MCL-1 anti-apoptotic protein for survival, the MCL-1 binding protein, MS I with N-terminal modifications for improved cell penetrance was utilized. The modified peptide is referred to as T-MS1. When added to cells, T-MS1 crosses the plasma membrane and antagonizes MCL-I, leading to mitochondrial outer membrane […] (MOMP) formation and subsequently, depolarization of the mitochondria. Mitochondrial potential was assessed using the cationic dye, DiOC2(3), which accumulates in negatively-charged, healthy mitochondria. Fresh or previously frozen MDS bone marrow cells were treated with azacitidine or DMSO control in media containing RPMI+10% FBS+pen/strep for 48 hours prior to being interrogated with T-MS1. After blocking and staining with antibody cocktail to gate on MDS blasts, T-MS1 was added and cells were incubated for 30 minutes at 37° C. After T-MS1 treatment, cells were washed and stained with cationic dye, Dioc6, for 90 minutes to assess mitochondrial depolarization via flow cytometric analysis. Priming % was calculated using the formula: […]
For concordance with prior priming values, an additional calibration factor of 1.6 was applied to patient priming values.
To determine the patients' cells' MCL-1 dependency following treatment with azacitidine, MDS patient-derived BMMCs were treated with DMSO, 0.3 μM azacitidine, 1 μM azacitidine or 2.5 μM azacitidine for 48-72 hours before being assessed by the MCL-1 dependency assay.

CD34+ MDS BMMNC [10] = experiment: Caspase-Glo 3/7 apoptotic activity in CD34+ MDS BMMNC (Example 16); format: cell-based, human; conditions: then DMSO or alvocidib 0.1 μM 6 hours
Procedure: A pharmacodynamic maker study was performed for azaditidine and alvocidib using MDS patient-derived BMMNC from Cureline. CD34^+ cells were isolated by CD34 MicroBead Kit (Miltenyi Biotec) and cultured in StemSpan™ SFEM II with StemSpan™ CD34^+ Expansion Supplement ([…] Technologies). Cells were seeded in 6-well plates and treated with DMSO or azacitidine (0.3 or 0.6 μM) for 24 hours. Following that, DMSO or alvocidib (0.1 μM) was sequentially added, and the cells were incubated for an additional 6 hours. Protein was extracted using RIPA buffer with protease and phosphatase inhibitor cocktail. Protein expression was assessed by Western blot using NOXA (CST, Cat #14766S), MCL-1(CST, Cat #392245) and β-actin (CST, Cat #4967L) antibodies. Apoptotic activity was assessed by Caspase-Glo® 3/7 assay (Promega).

MV-4-11 cells = experiment: MCL-1 dependency assay (T-MS1, Dioc6) in MV-4-11 cells; format: cell-based; conditions: for MCL-1 dependency versus DMSO controls: 24 hours
[11] = tested on: NOXA expression in MOLM13 xenograft; experiment: Western blot for NOXA from MOLM13 xenograft treated with decitabine; format: in vivo; conditions: decitabine 1 mg/kg IP, 24 hours
Procedure: as §2

Structure (SMILES): CN1CC[C@H](c2c(O)cc(O)c3c(=O)cc(-c4ccccc4Cl)oc23)[C@H](O)C1 [alvocidib]
- TGI (THP-1 AML model): 30.8%
- inhibition of RNA pol II phosphorylation and MCL-1 expression [1]: dose-dependent
- increase of apoptotic activity versus DMSO (CD34+ MDS BMMNC [2]; Patient 0219): 31%
- increase of apoptotic activity versus DMSO (CD34+ MDS BMMNC [2]; Patient 1115 (high-risk MDS)): 240%
- Phospho-RNA polymerase (pRpb1) and MCL-1 (MCL1) levels [3]: decreased
- Phospho-RNA polymerase (pRpb1) and MCL-1 (MCL1) levels ([3]; listed as Alvocidib): dose dependent reduction
- complete recovery rate (AML patients): 100%
- NOXA and MCL-1 protein expression (Western blot) versus DMSO [4]: suppressed MCL-1 expression
- tumor growth inhibition (% TGI) (OCI AML3 xenograft model): 55.0%
- average reduction of circulating blasts (circulating blasts): greater than 75%
- decrease of AUC going from cohort 4 to cohort 5 (clinical): 47.6%
- decrease of Cmax going from cohort 4 to cohort 5 (clinical): 15.4%
- AUC(0-t) (clinical): 3410 ng·h/mL
- AUC(0-t) (clinical; Mean): 4080 ng·h/mL
- Cmax (clinical): 868 ng/mL
- Cmax (clinical; Mean): 924 ng/mL
- half-life (clinical; 75 mg/m2, T1/2): 8.23 h
- half-life (clinical; 75 mg/m2, T1/2, Mean): 8 h
- Tmax (clinical): 0 h
- Tmax (clinical; Mean): 0 h
- IC50 (MDS BMMC's): ~100 nM
- tumor growth inhibition (% TGI) (MOLM13 xenograft model): 75.8%
- total flux count [5]: complete abrogation
- MCL-1 and NOXA levels (Western blot) [6]: inhibits upregulation of MCL-1 by azacytidine without affecting NOXA induction
- MCL-1 protein in response to alvocidib (Western blot) ([7]; FIG. 8 left panel): dose-dependent decrease
- duration of knock-down of MCL-1 ([7]; MV4-11 cells, 80 nM alvocidib): exceeds 96 hours

Structure (SMILES): Nc1ncn([C@@H]2O[C@H](CO)[C@@H](O)[C@H]2O)c(=O)n1 [azacitidine]
- NOXA expression in AML cell line models [8]: increased
- NOXA expression (Western blot), azacitidine ([8]; MV-4-11 AML cells, 24 hours): dose-dependent increase
- priming trend across MDS bone marrow samples ([9]; 0.3, 1 and 2.5 μM azacitidine): dose-dependent increase in priming
- percent priming ([9]; Patient 0216's blasts, 1 μM azacitidine): 115.3%
- percent priming ([9]; Patient 0216's blasts, 2.5 μM azacitidine): 132.1%
- percent priming ([9]; Patient 0515's blasts, 1 μM azacitidine): 82.1%
- percent priming ([9]; Patient 0515's blasts, 2.5 μM azacitidine): 81.6%
- percent priming ([9]; Patient 1060's blasts, 72-hour, 0.3 μM azacitidine): 45.8%
- percent priming ([9]; Patient 1060's blasts, 72-hour, 1 μM azacitidine): 60.9%
- maximum increase in priming ([9]; one patient sample): 35%
- increase of apoptotic activity versus DMSO (CD34+ MDS BMMNC [2]; Patient 0219): 20%
- increase of apoptotic activity versus DMSO (CD34+ MDS BMMNC [2]; Patient 1115 (high-risk MDS)): 35%
- NOXA and MCL-1 protein expression (Western blot) versus DMSO [4]: induced NOXA expression
- IC50 (MDS BMMC's): ~1000 nM
- increase in apoptotic activity versus DMSO (CD34+ MDS BMMNC [10]; azacitidine 0.3 μM 24 hours): 52%
- increase in apoptotic activity versus DMSO (CD34+ MDS BMMNC [10]; azacitidine 0.6 μM 24 hours): 62%
- MCL-1 dependency versus DMSO controls (MV-4-11 cells): sensitized MV4-11 cells to MCL-1 dependent apoptosis
- MCL-1 dependency versus DMSO controls (MV-4-11 cells; listed as azacytidine): increased MCL-1 dependency
- MCL-1 dependence (MV-4-11 cells; azacitidine 2.5 μM): 29.6%

Structure (SMILES): Nc1ncn([C@H]2C[C@H](O)[C@@H](CO)O2)c(=O)n1 [decitabine]
- NOXA expression in AML cell line models [8]: increased
- NOXA expression (Western blot), decitabine ([8]; MV-4-11 AML cells or MOLM13 cells, indicated times): time-dependent increase
- NOXA expression (Western blot) in xenograft [11]: increase in NOXA expression
- tumor growth inhibition (% TGI) (MOLM13 xenograft model): 58.6%
